In patent US12624012B2, “14-chloro-β-elemene nitric oxide donor derivative and preparation method and use thereof” (HANGZHOU NORMAL UNIVERSITY, priority 2021, dated 2026) one finds inhibition, IC50 and NO-release concentrations data, which are given here for seven molecules.

The IC50 is the concentration that inhibits the measured activity by half.

The subject of one experiment is NCI-H520. Description: In vitro anti-tumor activity evaluation test (CCK-8), NCI-H520. Type of experiment: cell-based, human. The note with it: Homo sapiens, NCI-H520, 72 h; for inhibition at 1 µM: read-out: Inhibitory rates against tumor cell lines; for IC50: read-out: IC50 against different tumor cell lines. The method, then:
(§1) • (1) Cells were digested and counted. Cell suspensions (H520, SW620 5.0×10^4 cells/mL, and U87MG 3.5×10^4 cells/mL) were prepared. 100 μL of cell suspension was added to each well of a 96-well cell culture plate. • (2) The 96-well cell culture plate was incubated in a 37° C., 5%, CO2 incubator for 24 h. • (3) A drug was diluted with a culture medium to a desired working solution concentration. 100 μL of the corresponding drug-containing culture medium was added to each well. At the same time, a negative control group and a positive control group were set up. • (4) The 96-well cell culture plate was incubated in a 37° C., 5%, CO2 incubator for 72 h. • (5) The 96-well plate was stained with CCK-8, and at λ=450 nm, the OD value was determined. • 1) 10 μL of CCK-8 was added to each well. The culture plate continued to be incubated in the incubator for 2-3 h. • 2) The culture plate was rocked for 10 min to gently mix and remove air bubbles from the 96-well plate. • 3) At λ=450 nm, the OD value of each well was read by the enzyme marker, and the inhibitory rates were calculated. • (6) According to the following equation (1), the growth inhibitory rate of the tumor cells was obtained. The obtained results were substituted into an IC 50 calculation software SPSS17.0 to find out the IC50 value.

For a further experiment, the system named is U87MG. As to the kind of experiment: In vitro anti-tumor activity evaluation test (CCK-8), U87MG. As to conditions: Homo sapiens, U-87 MG, U87MG, 72 h; for inhibition at 1 µM: read-out: Inhibitory rates against tumor cell lines; for IC50: read-out: IC50 against different tumor cell lines. The format is cell-based, human. The protocol: as §1
Experiment [1] in a line: In vitro NO release test (incubation with L-cysteine, OD at 550 nm). The note with it: 100 μM solution with cysteine solution, 37° C. The protocol: • (1) Sodium nitrite solutions with different concentrations were prepared. A calibration curve was drawn. • (2) The sample was treated. A 100 μM solution was prepared. 2.5 mL of the prepared compound solution and 2.5 mL of the cysteine solution were taken and incubated at 37° C. for 120 min, and the resulting mixture was sampled at different time points. • (3) A blank hole and a standard hole were set. 160 μL of the sample was collected and mixed evenly with 0.08 mL of a developer and stood at 37° C. for 15 min. At λ=550 nm, the OD value of absorbance was measured by the enzyme marker. The NO release levels were obtained by substituting the value into the standard curve.

The next experiment deals with SW620. As to the kind of experiment: In vitro anti-tumor activity evaluation test (CCK-8), SW620. The format is cell-based, human. The note with it: Homo sapiens, SW-620, SW620, 72 h; for inhibition at 1 µM: read-out: Inhibitory rates against tumor cell lines; for IC50: read-out: IC50 against different tumor cell lines. The protocol: as §1

For `C=C[C@]1(C)CC[C@@H](C(=C)CN(C)CCOC(=O)CCCC(=O)OCCOc2no[n+]([O-])c2S(=O)(=O)c2ccccc2)C[C@H]1C(=C)CCl` [Example 2, 4-(2-((5-(2-((2-((1R,3R,4S)-3-(3-chloroprop-1-en-2-yl)-4-methyl-4-vinylcyclohexyl)allyl)(methyl)amino)ethyoxyl)-5-oxopentanoyl)oxy)ethyoxyl)-3-(phenylsulfonyl)-1,2,5-oxadiazole 2-oxide], the inhibition at 1 µM came out at 48.5 ± 3% with NCI-H520, 56 ± 2.1% in the experiment with U87MG and 42.3 ± 3.7% in the experiment with SW620. The values for the IC50 in the experiment with NCI-H520 and in the experiment on U87MG were 777 ± 24 nM and 358 ± 23 nM, respectively. Also, the NO-release concentrations in experiment [1] (5 min) was found to be 2.10 µM; in experiment [1] (10 min) it was 2.40 µM; in experiment [1] (20 min), 2.84 µM; in experiment [1] (30 min), 3.79 µM; in experiment [1] (60 min), 6.74 µM; in experiment [1] (90 min), 10.72 µM. In addition, the NO-release concentrations in experiment [1] (120 min) is 14.97 µM.

On to `C=C[C@]1(C)CC[C@@H](C(=C)CN2CC[C@H](OC(=O)CCCC(=O)OCCOc3no[n+]([O-])c3S(=O)(=O)c3ccccc3)C2)C[C@H]1C(=C)CCl` [Example 10], for which the figures for the inhibition at 1 µM with NCI-H520, in the experiment with U87MG and in the experiment with SW620 were 46.7 ± 2%, 53.1 ± 1.4% and 45.9 ± 3.9%, respectively. Besides, the IC50 in the experiment with NCI-H520 came out at 848 ± 53 nM; with U87MG, 343 ± 29 nM; in the experiment on SW620, 1020 ± 90 nM. Moreover, the NO-release concentrations was determined as 8.39 µM in experiment [1] (5 min); 9.44 µM in experiment [1] (10 min); 10.65 µM in experiment [1] (20 min); 12.22 µM in experiment [1] (30 min); 18.15 µM in experiment [1] (60 min); 26.49 µM in experiment [1] (90 min). The molecule further yielded an NO-release concentrations in experiment [1] (120 min) of 34.97 µM.

In the case of `C=C[C@]1(C)CC[C@@H](C(=C)CN2CC[C@H](OC(=O)CCC(=O)OCCOc3no[n+]([O-])c3S(=O)(=O)c3ccccc3)C2)C[C@H]1C(=C)CCl` [Example 9, 4-(2-((4-(((S)-1-(2-((1R,3R,4S)-3-(3-chloroprop-1-en-2-yl)-4-methyl-4-vinylcyclohexyl)allyl)pyrrolidine-3-ly)oxy)-4-oxobutanoyl)oxy)ethyoxyl)-3-(phenylsulfonyl)-1,2,5-oxadiazole 2-oxide], the inhibition at 1 µM in the experiment on NCI-H520 stood at 44.5 ± 2.8%; in the experiment on U87MG, 51.3 ± 1.3%; with SW620, 39.3 ± 4.2%. The IC50 in the experiment with U87MG came to 323 ± 13 nM. Also, the NO-release concentrations is 3.25 µM in experiment [1] (5 min); 3.90 µM in experiment [1] (10 min); 5.98 µM in experiment [1] (20 min); 7.59 µM in experiment [1] (30 min); 11.11 µM in experiment [1] (60 min); 17.29 µM in experiment [1] (90 min). The molecule also had an NO-release concentrations in experiment [1] (120 min) of 23.48 µM.

As to `C=C[C@]1(C)CC[C@@H](C(=C)CN2CCC(COC(=O)CCC(=O)OCC#CCOc3no[n+]([O-])c3S(=O)(=O)c3ccccc3)CC2)C[C@H]1C(=C)CCl` [Example 15, 4-((4-((4-((1-(2-((1R,3R,4S)-3-(3-chloroprop-1-en-2-yl)-4-methyl-4-vinylcyclohexyl)allyl)piperidin-4-yl)methoxyl)-4-oxobutanoyl)oxy)but-2-yn-1-yl)oxy)-3-(phenylsulfonyl)-1,2,5-oxadiazole 2-oxide], the inhibition at 1 µM in the experiment on NCI-H520 is 45.9 ± 1.4%; with U87MG it was 40.5 ± 3.3%; with SW620, 31.3 ± 0.3%. In addition, the IC50 in the experiment with NCI-H520 worked out at 1040 ± 33 nM. In addition, the NO-release concentrations in experiment [1] (5 min) was 8.67 µM; in experiment [1] (10 min), 10.07 µM; in experiment [1] (20 min) it was 12.979 µM; in experiment [1] (30 min), 15.92 µM; in experiment [1] (60 min) it was 25.47 µM; in experiment [1] (90 min), 36.31 µM. The NO-release concentrations in experiment [1] (120 min) is 48.15 µM.

`C=C[C@]1(C)CC[C@@H](C(=C)CN2CC[C@H](OC(=O)CCC(=O)OCC#CCOc3no[n+]([O-])c3S(=O)(=O)c3ccccc3)C2)C[C@H]1C(=C)CCl` [Example 11, 4-((4-((4-(((S)-1-(2-((1R,3R,4S)-3-(3-chloroprop-1-en-2-yl)-4-methyl-4-vinylcyclohexyl)allyl)pyrrolidine-3-ly)oxy)-4-oxobutanoyl)oxy)but-2-yn-1-yl)oxy)-3-(phenylsulfonyl)-1,2,5-oxadiazole 2-oxide]: the inhibition at 1 µM was found to be 46 ± 1% in the experiment on NCI-H520, 42 ± 6.5% in the experiment with U87MG and 30.5 ± 3.3% with SW620. The IC50 in the experiment with NCI-H520 is 1020 ± 41 nM. In addition, the NO-release concentrations in experiment [1] (5 min) was 9.49 µM; in experiment [1] (10 min), 10.79 µM; in experiment [1] (20 min), 14.43 µM; in experiment [1] (30 min), 15.99 µM; in experiment [1] (60 min), 24.58 µM; in experiment [1] (90 min), 37.37 µM. For the same molecule, in experiment [1] (120 min), the NO-release concentrations was determined as 50.99 µM.

On to `C=C[C@]1(C)CC[C@@H](C(=C)CN2CCN(CCOC(=O)CCCC(=O)OCC#CCOc3no[n+]([O-])c3S(=O)(=O)c3ccccc3)CC2)C[C@H]1C(=C)CCl` [Example 24, 4-((4-((5-(2-(4-(2-((1R,3R,4S)-3-(3-chloroprop-1-en-2-yl)-4-methyl-4-vinylcyclohexyl)allyl)piperazin-1-yl)ethyoxyl)-5-oxyglutaryl)oxy)but-2-yn-1-yl)oxy)-3-(phenylsulfonyl)-1,2,5-oxadiazole 2-oxide], for which the inhibition at 1 µM in the experiment with NCI-H520 turned out to be 46.8 ± 2.1%; in the experiment on U87MG, 50.3 ± 1.2%; in the experiment with SW620 it was 43.2 ± 5.5%. In addition, the figures for the IC50 in the experiment with NCI-H520 and in the experiment on U87MG were 1062 ± 2 nM and 960 ± 75 nM, respectively. The NO-release concentrations in experiment [1] (5 min) turned out to be 10.64 µM; in experiment [1] (10 min), 11.37 µM; in experiment [1] (20 min), 12.38 µM; in experiment [1] (30 min), 13.68 µM; in experiment [1] (60 min), 18.24 µM; in experiment [1] (90 min), 25.90 µM. In addition, the NO-release concentrations in experiment [1] (120 min) was 34.64 µM.

Turning to `C=C[C@]1(C)CC[C@@H](C(=C)CN2CCCC(COC(=O)CCC(=O)OCCOc3no[n+]([O-])c3S(=O)(=O)c3ccccc3)C2)C[C@H]1C(=C)CCl` (stereo partly drawn) [Example 17, 4-(2-((4-((1-(2-((1R,3R,4S)-3-(3-chloroprop-1-en-2-yl)-4-methyl-4-vinylcyclohexyl)allyl)piperidin-3-yl)methoxyl)-4-oxobutanoyl)oxy)ethyoxyl)-3-(phenylsulfonyl)-1,2,5-oxadiazole 2-oxide], the values for the inhibition at 1 µM in the experiment with NCI-H520, in the experiment with U87MG and in the experiment on SW620 were 45.4 ± 1.9%, 51 ± 2.2% and 38.3 ± 3%, respectively. The figures for the IC50 with U87MG and in the experiment on SW620 were 811 ± 16 nM and 1090 ± 40 nM, respectively. Moreover, the NO-release concentrations amounted to 4.84 µM in experiment [1] (5 min); 5.66 µM in experiment [1] (10 min); 6.95 µM in experiment [1] (20 min); 8.44 µM in experiment [1] (30 min); 12.43 µM in experiment [1] (60 min); 17.81 µM in experiment [1] (90 min). In experiment [1] (120 min), this molecule showed an NO-release concentrations of 22.91 µM.
